Entries after “also recorded” stand apart in the source; their conditions may differ.
Columns and labels:
[1] = test system: corneal vessels; test: inhibition of angiogenesis, rat cornea pellet implant (Walker 256 extract); type: in vivo; settings: 10 mg/mL in 55% DMSO, infused into vena cava 0.8 mL/24 hr, six days
Description: A crude extract (30 mg/mL protein) of Walker 256 carcinoma, a rat malignant tumor, was incorporated into Hydron, a slow release polymer, in 1.5 mm diameter pellets. Pellets were implanted in the stroma of the corneas of anesthetized albino rats. […] Controls received only the DMSO solution. After six days, the animals were re-anesthetized and perfused intra-arterially with India ink in order to visualize the corneal vessels. The eyes were then enucleated and fixed in 5% formalin. Control eyes which received only the DMSO solution show massive vessel growth toward the pellet from the limbus.

[2] = test system: protease activity of chronic wound fluid; test: Azocoll assay of protease activity in chronic wound fluid; type: biochemical, human
Description: (§1) Fluids were collected from 3 types of human wounds termed closed spontaneously healing wounds, open slowly healing wounds, and open chronic wounds. In the first category were fluids collected from the chest wall of women following mastectomy surgery. Fluids from non-infected wounds that were left open for valid surgical reasons were considered open slowly healing wounds. An occlusive dressing was placed over the wound bed, and fluids were collected after 2-6 hours of occlusion. Finally, fluids were also collected from chronic open wounds by covering the wounds with occlusive dressings. Wounds were considered to be chronic if they were not clinically infected and had been open and not healing for more than 4 weeks.
(§2) The various wound fluids were assayed for matrix metalloproteinase activity using the Azocoll assay essentially as described by Chavira, et al., Analytic Biochemistry (1984), 136:446.
(§3) The fluids were centrifuged, and the supernatants filtered using a 0.45μ sterile Gelman filter. The filtrates were stored frozen at -80° C. until tested for protease activity.
(§4) The effects of four inhibitors on the protease activity present in wound fluids were determined. The inhibitors were: compounds
Stock solutions of the four inhibitors were all prepared at a concentration of 800 μg/ml. Due to different solubility properties of the inhibitors, different techniques were utilized. […] S1209 was dissolved in 1% DMSO then dissolved in 10 mM citrate, pH 5.5, containing 0.05% methyl cellulose. 39A was dissolved in propylene glycol (to give a final concentration of 2.4%) then dissolved in 1 mM CaCl2, 50 mM Tris-Cl, pH 7.8. 21A was dissolved in propylene glycol (2.4%) methyl cellulose (0.05%) and 10 mM citrate, pH 8.
The protease substrate, Azocoll, was obtained from Sigma Chemical Corporation and it is a substrate for collagenase/gelatinase-like metalloproteinase enzymes and general proteases. Clostridium histolyticum collagenase (the crude form of the enzyme) was from Worthington Biochemicals. General chemicals including TRIS buffer, DMSO, and CaCl2 were from Sigma Chemical Corporation.
(§5) Briefly, 900 μl of the Azocoll substrate suspension in buffer ([…] in 50 mM TRIS, pH 7.8, 1 mM CaCl2) was added to 1.5 ml microcentrifuge tubes then 50 μl of inhibitor (or buffer) and 50 μl of chronic wound fluid (or collagenase standard) were added to the reaction tube. The reaction tubes were placed at 37° C. in a shaker that inverted the tubes 30 times per minute. After 24 hours of incubation, the reaction tubes were centrifuges at 10,000 X g and the absorbance of the supernatant solution was measured at 520 nm with a Milton-Roy spectrophotometer. Proteolysis of Azocoll substrate generates soluble colored fragments from the insoluble Azocoll substrate. Wound fluid samples were incubated alone or with the inhibitors. Controls included incubation of the Azocoll substrate with the assay buffer to measure spontaneous degradation of the substrate. A standard curve for digestion of the Azocoll substrate was generated by incubation of the Azocoll with crude bacterial collagenase. Protease levels were expressed as net μg of collagenase equivalent per ml of chronic wound fluid. In the figures, certain of the wound fluids are referred to by an individual name.
For these experiments, due to the different solubility properties of the inhibitors, different techniques were utilized. […] S1209 was dissolved in 1% DMSO then dissolved in 10 mM citrate, pH 5.5, containing 0.05% methyl cellulose. 39A was dissolved in propylene glycol (to give a final concentration of 2.4%) then dissolved in 1 mM CaCl2, […] Tris-Cl, pH 7.8. 21A was dissolved in propylene glycol (2.4%) methyl cellulose (0.05%) and 10 mM citrate, pH 8.

[3] = test system: protease activity in open and chronic wound fluids; test: Azocoll assay of protease activity in open and chronic wound fluids; type: biochemical, human
Description: as §1, §2, §3, §4
These inhibitors were compared to certain other inhibitors and these were UL001 [HSCH2 CH(CH2 CH(CH3)2)CO--Phe--Ala--NH2 ] obtained from Peptides International and MP506, obtained from Elastin Products. EDTA (ethylenediamine tetraacetic acid) and PMSF (phenylmethylsulfonyl fluoride) were also studied.
as §5

CNC(=O)[C@H](Cc1c[nH]c2ccccc12)NC(=O)[C@@H](CC(=O)NO)CC(C)C [Compound 5A, N-[D,L-2-isobutyl-3-(N'-hydroxycarbonylamido)-propanoyl]-tryptophan methylamide]
corneal vessel growth versus controls [1]: vessels much shorter and/or much finer than in the controls, barely filling with ink | effective concentrations (order of magnitude) ([2]; FIG. 4): μM | inhibition of protease activity of a chronic wound fluid ([2]; FIG. 4): effectively inhibited; also recorded: much more potent that EDTA | inhibition of proteolytic degradation of Azocoll ([2]; FIG. 4, 0.4 μg/ml (0.1 μM)): approximately 92% | inhibition of proteolytic degradation of Azocoll ([2]; FIG. 4, 4 μg/ml (1 μM)): approximately 92% | inhibition of proteolytic degradation of Azocoll ([2]; FIG. 4, 4 μg/ml (10 μM)): approximately 96% | inhibition of proteolytic degradation of Azocoll ([2]; FIG. 4, 40 μg/ml (100 μM)): approximately 96% | protease activity of chronic wound fluid after addition of inhibitor ([2]; FIG. 7, 800 μg/ml, untreated 284±52): 45±1 μg collagenase equivalents/ml of wound fluid | inhibition of protease activity of chronic wound fluid ([2]; FIG. 7, highest concentration (800 μg/ml)): 84% | protease activity of chronic wound fluid after addition of inhibitor, lower concentrations ([2]; FIG. 7, lower concentrations, untreated 284±52): up to 90±6 μg collagenase equivalents/ml of wound fluid | effect on proteolytic activity of open and chronic wound fluids ([3]; FIG. 5): very effective inhibitors | inhibition of Azocoll-degrading proteases in wound fluids ([3]; FIG. 6): very effectively; also recorded: very effective inhibitors | reduction of proteolytic activity in open or chronic wound fluids ([3]; fluids with high levels of Azocoll-degrading protease activity): 95%

From patent US5773438A, “Synthetic matrix metalloprotease inhibitors and use thereof” (Glycomed Incorporated, priority 1994, dated 1998)
